Assay results published in article PMC4414571, “Peptides of Presenilin-1 Bind the Amyloid Precursor Protein Ectodomain and Offer a Novel and Specific Therapeutic Approach to Reduce ß-Amyloid in Alzheimer’s Disease” (PLoS ONE, 2015).
Ends that are not written are not given here.

Tests used:
[1] = target: T1, soluble ectodomain of APP (APPs, APP 695) (Homo sapiens, UniProt P05067); experiment: Biolayer interferometry, biotinylated peptides on streptavidin biosensors vs purified soluble APP (APPs); assay type: binding; settings: 30°C, biotinylated peptide on SA biosensors
T1 construct: host or cells: Sf9 insect cells (baculovirus), conditioned medium
T1 sequence (P05067 18-612 isoform P05067-4 limits assumed): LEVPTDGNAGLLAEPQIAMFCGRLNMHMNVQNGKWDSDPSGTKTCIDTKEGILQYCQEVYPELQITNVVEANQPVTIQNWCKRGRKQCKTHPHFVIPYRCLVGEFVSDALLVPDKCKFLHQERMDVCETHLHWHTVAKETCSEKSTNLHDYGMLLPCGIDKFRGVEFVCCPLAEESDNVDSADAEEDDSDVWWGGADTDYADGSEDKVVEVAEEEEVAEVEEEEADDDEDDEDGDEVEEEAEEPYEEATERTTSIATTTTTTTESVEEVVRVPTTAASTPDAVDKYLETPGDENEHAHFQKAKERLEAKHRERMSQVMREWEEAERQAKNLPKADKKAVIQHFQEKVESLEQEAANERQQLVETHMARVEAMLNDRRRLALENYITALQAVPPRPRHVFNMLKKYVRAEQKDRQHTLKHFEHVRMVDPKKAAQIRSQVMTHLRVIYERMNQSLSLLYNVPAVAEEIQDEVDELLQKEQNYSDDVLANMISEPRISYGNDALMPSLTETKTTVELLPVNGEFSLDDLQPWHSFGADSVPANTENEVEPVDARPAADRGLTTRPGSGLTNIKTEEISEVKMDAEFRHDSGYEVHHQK
Protocol: Sf9 cells (ATCC CRL 1711) were grown in TMN-FH complete medium (Pharmingen) in suspension and infected at a multiplicity of infection of 2 with a titred stock of recombinant virus expressing human APP695. Conditioned media and/or cells were harvested 6 days after infection. Cells and debris were removed by centrifugation (at 1000 x g for 15 min).
Recombinant baculoviruses were produced according to published protocols. A fragment containing full-length APP 695 was subcloned into the baculovirus transfer vector pBlueBac3 (Invitrogen). The resulting recombinant vector was co-transfected with baculovirus DNA into sf9 cells. Recombinant APP expression was verified by Western blot hybridization using mouse MAb against human APP (Cat # MAB348, Millipore).
APPs was purified from baculovirus conditioned medium to >95% purity, as assessed by densitometry analysis of Coomassie stained SDS PAGE gels, by Arvys Proteins, Stamford, CT, using the following strategy. The conditioned medium proteins were purified by heparin-affinity chromatography, followed by two gel filtration chromatography steps over HiPrep Sephacryl S300 columns and two steps of anion exchange chromatography on HiTrapQ columns.
The binding affinities of peptides P1, scrambled P1, P4, P5, P7 and P8 for the soluble ectodomain of APP or control IgG were measured by biolayer interferometry on an Octet RED96 System (Pall FortéBio Corp., Menlo Park, CA). This system monitors interference of light reflected from two sources (an internal reflection surface and the liquid/solid interface of a fiber optic sensor) to measure the rate of binding of molecules to the biosensor surface.
Peptides were synthesized and biotinylated at the NH2-terminus by Dr. Michael Freydkin at Biopeptides, Inc., San Diego, CA, and purified to >95% by HPLC. Biotinylated peptides were loaded onto Streptavidin (SA) biosensors (Pall FortéBio Corp.) at empirically determined concentrations. All affinity measurements were carried out in Kinetics Buffer (KB) (1X PBS, 0.002% Tween-20, and 0.01% BSA) at 30°C. Typically, the biosensors were pre-equilibrated in KB for 120s, loaded with a biotinylated peptide at optimal concentrations and times, quenched with 10 μg/ml biocytin in KB for 180s, brought to baseline in KB for 120s and transferred to wells containing purified APPs (0–200 nM). Multiple negative controls were run for each peptide including association buffer only (no APP) or with IgG replacing APP. Binding kinetics were calculated using the FortéBio Data Analysis v7.1 software. The association (k on) and dissociation (k off) rate constants were obtained by fitting the association and dissociation data to a 1:1 model. Binding affinity, KD, was calculated as k off/k on.

[2] = test system: NICD (γ-secretase activity); experiment: NICD levels in neocortex of treated mThy1-hAPP mice by Western blot (γ-secretase activity); assay type: in vivo, mouse; settings: peptide-infused mThy1-hAPP mice vs PBS, n = 5, two weeks after end of treatment
Protocol: Extracts of neocortex of mThy1-hAPP mice treated with P4, P8 or PBS only were electrophoresed on SDS gels and Western blotted with primary rabbit antibodies against NICD (Cat# 07–1232, Millipore) at 4°C overnight, followed by horse-radish peroxidase (HRP)-conjugated goat anti-rabbit IgG (Bio-Rad). The immunoreactive bands were detected by chemiluminescence (Thermo Scientific).
An optimal therapeutic approach to AD would avoid producing serious effects on other biochemically and physiologically important processes, as would occur if the cleavages of any of the other substrates of β- or γ-secretase were affected in the process of reducing the levels of Aβ. An especially well-studied example is the γ-secretase activity of PS-1 that is critically involved in the final enzymatic cleavage of Aβ from APP; it also functions in an essential developmental process that generates NICD from Notch. […] At the same time we analyzed the same tissue samples for their β-secretase (BACE-1) activity and APP expression. Extracts were prepared of the neocortex of Tg mice that had been treated with P4, P8 or PBS, and the levels of NICD were determined by Western blot analysis with a primary rabbit Ab against NICD. […]

[3] = ref evidence that will be presented elsewhere, cited from earlier work
Source text: Two types of technologies have largely been pursued in the field thus far in efforts to reduce the levels of Aβ: β- or γ- secretase inhibitors or modulators, and the use of Aβ-specific monoclonal antibodies. Neither approach has been entirely successful, and γ-secretase inhibitors have been particularly problematic because of off-target effects due to the inhibition of their other substrates, Notch in particular.

[4] = test system: NICD / γ-secretase in Jurkat cells; experiment: NICD levels in extracts of Jurkat cells by ELISA (γ-secretase activity); settings: 0–10 μM, 24 h, 450 nm, percent control, n = 2–3
Protocol: Jurkat cells (Sigma) were cultured in RPMI 1640 medium supplemented with 10% FCS, 2 mM L-glutamine, penicillin and streptomycin at 37°C in the presence of 5% CO2. […] After harvesting the cells, extracts were prepared by sonication in lysis buffer (Cell Signaling Technologies) supplemented with 1mM PMSF and complete protease inhibitor cocktail (Roche). The solubilized extracts were then used in ELISA assays to determine NICD levels, as a measure of γ-secretase activity, using the PathScan Cleaved Notch 1 (Val 1744) sandwich ELISA kit (Cell Signaling Technologies) according to the manufactuer’s protocols.

[5] = test system: IMR-32 human neuroblastoma cell-line (endogenous Aβ40 or 42 production); experiment: Endogenous Aβ40 and 42 production in IMR-32 culture medium by ELISA; assay type: cell-based
Protocol: A human neuroblastoma cell-line, IMR-32 (ATCC CCL-127) was cultured in MEM Earles medium containing 10% fetal bovine serum, 2 mM L-glutamine in the presence of penicillin and streptomycin. Equal numbers of cells (0.3 x 10^6 per well) were plated on 6-well plates overnight. Peptides (0–5 μM) were added to fresh culture medium (500 μl per well) and left in the incubator for 24 hours, after which the culture medium from each well was removed and stored at -80°C in the presence of 4-(2-Aminoethyl) benzenesulfonyl fluoride hydrochloride (AEBSF) and protease inhibitors. Prior to use, the culture medium was centrifuged in an eppendorf microfuge for 5 min at 4°C, the supernatant diluted with an equal volume of sample diluent buffer (Wako) and analyzed for the presence of Aβ40 or 42 using a commercial ELISA kit (Wako).

BACE-1 in IMR-32 cells = experiment: BACE-1 activity in extracts of cultured IMR-32 cells; assay type: cell-based, human; settings: 0–5 μM, 24 h, SensiZyme kit, 405 nm, percent control, n = 2–3
Protocol: IMR-32 cells in culture were treated with peptides P4, P8 and scrambled peptide P1 (0–5 μM) or the BACE-1 inhibitor […] (Selleck Chemicals) (0–500 nM) for 24 h. Cells were harvested and extracts prepared by sonication and solubilization in cell lysis buffer containing 1% Triton X-100 and EDTA (Cell Signaling Technologies) and supplemented with complete protease inhibitor cocktail (Roche) according to the manufacturer’s protocols. BACE-1 activity was measured as already described above using the SensiZyme BACE-1 activity assay kit.

Sequence	koff ([1]; 1:1 model, Kinetics Buffer) [s⁻¹]	kon ([1]; 1:1 model, Kinetics Buffer) [M⁻¹ s⁻¹]	Kd ([1]; k off/k on, 1:1 model, Kinetics Buffer (1X PBS, 0.002% Tween-20, 0.01% BSA)) [nM]	NICD levels in neocortex (in words) [2]	Stability (in words) ([3]; matrix not stated)	Brain delivery (in words) ([3]; rats)	NICD levels in Jurkat cells, peptides (in words) [4]	Effect on Aβ40 and 42 production in vitro (in words) ([5]; 0–5 μM peptide, 24 h, IMR-32 culture medium, ELISA)	Production of total Aβ and of Aβ 40 and 42 (summary in words) ([5]; Discussion summary, stated as in vitro and in vivo (mThy1-hAPP Tg mice))	Binding to purified APPs (in words) ([1]; Kinetics Buffer)	BACE-1 activity in IMR-32 cells, peptides (in words) (BACE-1 in IMR-32 cells)
DEEEDEEL [Peptide P8]	0.00306	886000	3.45	not accompanied by any significant changes in the levels of NICD	stable	can be successfully delivered to the brain in rats	no appreciable change in the levels of NICD	–	–	–	–
PTERLLKGTVRLKQQLDQDESDARNLRNNLNPQRGFMALDESERHENRSAMQVESHQNPHPPYETEQENDEGSGSEYSNV [SP1, scrambled P1, control peptide]	–	–	–	–	–	–	–	no significant changes in Aβ levels	did not reduce Aβ	no significant binding to APP	remained essentially unchanged
